This passage reports EC50 results from patent US10092529B2, “Necrosis inhibitors” (National Institute of Biological Sciences, Beijing, priority 2014, dated 2018).

The test has as its system HT-29 cells. As to the kind of experiment: Necrosis assay: TNF-α/Smac mimetic/z-VAD induced necrosis, cell viability by CellTiter-Glo. It counts as cell-based. To be noted: inhibition of necrosis, ATP levels, read-out: EC50 (necrosis activity). As for the experimental part: HT-29 cells were cultured in McCoy's 5A culture medium (Invitrogen). On day one, HT-29 cells were plated in 96-well assay plates at density of 2,500-3,500 cells per well. On day two, necrosis were induced by adding 20 ng/ml TNF-α (T), 100 nM Smac mimetic (S), and […] z-VAD (Z). At the same time, […] compound from a chemical library of ˜200,000 compounds was delivered into each well. After 24 hrs treatment, cell viability was determined by measuring ATP level using the CellTiter-Glo Luminescent Cell Viability Assay kit. A CellTiter-Glo Assay (Promega) was performed according to the manufacturer's instructions Luminescence was recorded with a PerkinElmer EnSpire Multimode Plate Reader. Survived cells were normalized to those cells treated with DMSO. Nec-1 was used as a positive control for screening necrosis inhibitors. Data are represented as mean±standard deviation of duplicates.
Dose-dependent inhibition of necrosis by compound #9 and the derivative compounds in HT-29 cells were determined by measuring ATP levels as described above.

[1] abbreviates: Homo sapiens, range given in uM.

Molecules are shown by their SMILES. Where two headings read alike, the source gives them in different places.

Broadly, the EC50 is the concentration giving half of the maximal effect. As to `CCC(C)(C)C(=O)N1C(=O)CCN1c1ccccc1` [Compound 33, 2-(2,2-dimethylbutanoyl)-1-phenylpyrazolidin-3-one], the EC50 under setting [1] is 1 to 100 µM.
Consider `CC(F)(F)C(C)(C)C(=O)N1CCCC1c1ccccc1` (stereo not shown) [Compound S10, 3,3-difluoro-2,2-dimethyl-1-(2-phenylpyrrolidin-1-yl) butan-1-one], for which the half-maximal effective concentration (EC50) (range given in nM) lay within 0.001 to 1 µM.
As for `CC(F)(F)C(C)(C)C(=O)N1C=CC=CC1C1CCCCC1` (stereo not shown) [Compound S14], the 50% effective concentration (EC50) under setting [1] lay in the range of 1 to 100 µM.
On to `CCC(C)(C)C(=O)N1N=CCC1c1ccccc1` (stereo not shown) [Compound 20, 2,2-dimethyl-1-(5-phenyl-4,5-dihydro-1H-pyrazol-1-yl)butan-1-one], for which the EC50 (range given in nM) fell in the range of 0.001 to 1 µM.
Consider `C#CC(C)(C)C(=O)N1C(=O)CC1c1cccc(N=[N+]=[N-])c1` (stereo not shown) [Compound 44, 4-(3-azidophenyl)-1-(2,2-dimethylbut-3-ynoyl)azetidin-2-one], for which the EC50 under setting [1] fell in the range of 1 to 10 µM.
In the case of `CCC(C)(C)C(=O)N1CCC=C[C@H]1c1ccccc1` [Compound 74], under “range given in uM”, the concentration giving a half-maximal response (EC50) was 1 to 1000 µM.
As for `CCC(C)(C)C(=O)N1C(=O)C(F)(F)C1c1ccccc1` (stereo not shown) [Compound 32, 1-(2,2-dimethylbutanoyl)-3,3-difluoro-4-phenylazetidin-2-one], the EC50 (range given in nM) lay in the range of 0.001 to 1 µM.
`CCC(C)(C)C(=O)N1CC[C@H]1c1ccccc1` [Compound 3, (S)-2,2-dimethyl-1-(2-phenylazetidin-1-yl)butan-1-one]: the concentration giving a half-maximal response (EC50) (range given in nM) lay within 0.001 to 1 µM.
For the molecule `CCC(C)(C)C(=O)N1CCCC1c1cccc(F)c1` (stereo not shown) [Compound 9, 1-(2-(3-fluorophenyl)pyrrolidin-1-yl)-2,2-dimethylbutan-1-one], the concentration giving a half-maximal response (EC50) (range given in nM) lay within 0.001 to 1 µM.
For the molecule `CCC(C)(C)C(=O)N1CCC1c1cccc(F)c1` (stereo not shown) [Compound 71], under “range given in uM”, the half-maximal effective concentration (EC50) is 1 to 1000 µM.
As to `CC(=O)N1C(=O)OC[C@H]1c1ccccc1` [Compound 39, (R)-3-acetyl-4-phenyloxazolidin-2-one], the EC50 under setting [1] is 1 to 10 µM.
Consider `C=CC(C)(C)C(=O)N1CCC1c1ccco1` (stereo not shown) [Compound 64], for which, where the note is “range given in uM”, the EC50 lay within 1 to 1000 µM.
Regarding `CCC(C)(C)C(=O)N1CCC1c1ccccc1F` (stereo not shown) [Compound 67], the EC50 (range given in uM) lay in the range of 1 to 1000 µM.
`CC(F)(F)C(C)(C)C(=O)N1CCC=C[C@H]1C1CCCCC1` [Compound S13]: the concentration giving a half-maximal response (EC50) under setting [1] lay in the range of 1 to 100 µM.
On to `CCC(C)(C)C(=O)N1OCCC1c1ccccc1` (stereo not shown) [Compound 76], for which, under “range given in uM”, the concentration for a half-maximal effect (EC50) is 1 to 1000 µM.
Turning to `CCC(C)(C)C(=O)N1CC1c1ccccc1` (stereo not shown) [Compound 1, 2,2-dimethyl-1-(2-phenylaziridin-1-yl)butan-1-one], the EC50 under setting [1] is 1 to 100 µM.
Regarding `CC(F)(F)C(C)(C)C(=O)N1C=CC=CC1c1ccccc1` (stereo not shown) [Compound S15], under setting [1], the EC50 is 1 to 100 µM.
`CCC(C)(C)C(=O)N1CCCC1c1ccccc1` (stereo not shown) [Compound 4, 2,2-dimethyl-1-(2-phenylpyrrolidin-1-yl)butan-1-one]: for the setting “range given in nM”, the EC50 was 0.001 to 1 µM.
On to `C=CC(C)(C)C(=O)N1C=CC=C[C@H]1C1CCCCC1` [Compound 57], for which the EC50 (range given in uM) was 1 to 1000 µM.
In the case of `CCC(C)(C)C(=O)N1CCN(C(C)=O)CC1c1ccccc1` (stereo not shown) [Compound 18, 1-(4-acetyl-2-phenylpiperazin-1-yl)-2,2-dimethylbutan-1-one], under setting [1], the EC50 was in the range of 1 to 100 µM.
On the same count and under the same terms, to `CC(C)(C)S(=O)(=O)N1C(=O)C[C@H]1c1ccccc1` [Compound 45, (S)-1-(tert-butylsulfonyl)-4-phenylazetidin-2-one] belongs 1 to 100 µM.
As for `C=CC(C)(C)C(=O)N1CCCC1c1ccccc1` (stereo not shown) [Compound 69], the concentration for a half-maximal effect (EC50) (range given in uM) lay within 1 to 1000 µM.
Consider `O=C1C[C@@H](c2ccccc2)N1CC1CC1` [Compound 50, (S)-1-(cyclopropylmethyl)-4-phenylazetidin-2-one], for which the EC50 under setting [1] lay within 1 to 100 µM.
Turning to `CCC(C)(C)C(=O)N1C=CC=CC1c1ccccc1` (stereo not shown) [Compound 55], the half-maximal effective concentration (EC50) (range given in uM) was 1 to 1000 µM.
On to `CCC(C)(C)C(=O)N1CCN(C(=O)OC(C)(C)C)CC1c1ccccc1` (stereo not shown) [Compound 19, tert-butyl 4-(2,2-dimethylbutanoyl)-3-phenylpiperazine-1-carboxylate], for which the EC50 under setting [1] lay within 1 to 100 µM.
For the molecule `CCN1C(=O)OC[C@H]1c1ccccc1` [Compound 51, (R)-3-ethyl-4-phenyloxazolidin-2-one], the 50% effective concentration (EC50) under setting [1] lay in the range of 1 to 100 µM.
With `C=CC(C)(C)C(=O)N1CCC1c1ncc(C)s1` (stereo not shown) [Compound 66], under “range given in uM”, the concentration giving a half-maximal response (EC50) is 1 to 1000 µM.
With `CCS(=O)(=O)N1CC[C@H]1c1ccccc1` [Compound S6, (S)-1-(ethylsulfonyl)-2-phenylazetidine], the EC50 under setting [1] lay within 1 to 100 µM.
Regarding `CCC(C)(C)C(=O)N1NCCC1c1ccccc1` (stereo not shown) [Compound 21, 2,2-dimethyl-1-(5-phenylpyrazolidin-1-yl)butan-1-one], the EC50 (range given in nM) is 0.001 to 1 µM.
As to `CCC(C)(C)C(=O)N1C(=O)CC1c1cccc(Br)c1` (stereo not shown) [Compound 26, 4-(3-bromophenyl)-1-(2,2-dimethylbutanoyl)azetidin-2-one], for the setting “range given in nM”, the concentration for a half-maximal effect (EC50) was 0.001 to 1 µM.
Take `CCC(C)(C)C(=O)N1COC[C@H]1c1ccccc1` [Compound 8, (R)-2,2-dimethyl-1-(4-phenyloxazolidin-3-yl)butan-1-one]: under “range given in nM”, the half-maximal effective concentration (EC50) lay in the range of 0.001 to 1 µM.
`CCS(=O)(=O)N1C(=O)C[C@H]1c1ccccc1` [Compound 43, (S)-1-(ethylsulfonyl)-4-phenylazetidin-2-one]: under setting [1], the EC50 lay within 1 to 100 µM.
Turning to `O=C(N1CCCC1c1cccc(F)c1)C1(C(F)(F)F)CCC1` (stereo not shown) [Compound 36, (2-(3-fluorophenyl)pyrrolidin-1-yl)(1-(trifluoromethyl)cyclobutyl)methanone], the concentration giving a half-maximal response (EC50) (range given in nM) lay in the range of 0.001 to 1 µM.
`CCN1C(=O)C[C@H]1c1ccccc1` [Compound 48, (S)-1-ethyl-4-phenylazetidin-2-one]: the EC50 under setting [1] lay within 1 to 100 µM.
For the molecule `CCC(C)(C)C(=O)N1CC[C@@H](O)[C@H]1c1ccccc1` [Compound S2, 1-((2R,3R)-3-hydroxy-2-phenylpyrrolidin-1-yl)-2,2-dimethylbutan-1-one], under setting [1], the EC50 was in the range of 1 to 100 µM.
On to `C=CC(C)(C)C(=O)N1CCC=C[C@H]1C1CCCCC1` [Compound 54], for which, under “range given in uM”, the half-maximal effective concentration (EC50) was in the range of 1 to 1000 µM.
As for `O=C(N1CCCC1c1cccc(F)c1)C12CC3CC(CC(C3)C1)C2` (stereo not shown) [Compound 37, adamantan-1-yl(2-(3-fluorophenyl)pyrrolidin-1-yl)methanone], under setting [1], the concentration for a half-maximal effect (EC50) fell in the range of 1 to 100 µM.
Take `CC(F)(F)C(C)(C)C(=O)N1CC=C[C@H]1c1ccccc1` [Compound S16]: the 50% effective concentration (EC50) under setting [1] was 1 to 100 µM.
For the molecule `C=CC(C)(C)C(=O)N1CCC=C[C@H]1c1ccccc1` [Compound 75], under “range given in uM”, the half-maximal effective concentration (EC50) lay within 1 to 1000 µM.
For the molecule `C=CC(C)(C)C(=O)N1CCC1c1cccs1` (stereo not shown) [Compound 62], the 50% effective concentration (EC50) (range given in uM) is 1 to 1000 µM.
For `CC(C)(C)C(=O)N1CC[C@H]1c1ccccc1` [Compound S12, (S)-2,2-dimethyl-1-(2-phenylazetidin-1-yl)propan-1-one], the concentration for a half-maximal effect (EC50) (range given in nM) is 0.001 to 1 µM.
On to `C=CC(C)(C)C(=O)N1C=CC=CC1c1ccccc1` (stereo not shown) [Compound 58], for which the EC50 (range given in uM) lay in the range of 1 to 1000 µM.
For `CC(C)(C)C(=O)N1CCCC1c1ccccc1` (stereo not shown) [Compound S11, 2,2-dimethyl-1-(2-phenylpyrrolidin-1-yl)propan-1-one], the EC50 (range given in nM) fell in the range of 0.001 to 1 µM.
Regarding `O=C(C=CCl)N1C(=O)C[C@H]1c1ccccc1` [Compound 40, (S)-1-(3-chloroacryloyl)-4-phenylazetidin-2-one], under setting [1], the concentration for a half-maximal effect (EC50) lay in the range of 1 to 100 µM.
In the case of `CCC(C)(C)C(=O)N1CCCCC1c1ccccc1` (stereo not shown) [Compound 11, 2,2-dimethyl-1-(2-phenylpiperidin-1-yl)butan-1-one], under setting [1], the concentration giving a half-maximal response (EC50) lay in the range of 1 to 100 µM.
In the case of `CCC(C)(C)C(=O)N1CC=C[C@H]1c1ccccc1` [Compound 72], the EC50 (range given in uM) lay within 1 to 1000 µM.
